According to patent US7169393B2, “Antigenic peptide fragments of VapA protein, and uses thereof” (Rural Industries Research & Development Coporation, priority 2000, dated 2007):

Test system: antibodies in sera of foals (goat anti-horse IgG detection)
Assay: Peptide ELISA: biotinylated overlapping VapA peptides screened with foal sera
Format: binding
Settings: for number of positive sera recognizing (positive with) the peptide: fifty-one positive sera (foals with current R. equi disease), 1 in 250, positive = at least twice background OD at 450 nm
Source text: Biotinylated peptides synthesized by Mimotopes, Victoria, Australia were used in all assays. The peptide bank used in the initial screening of sera was designed based upon the published sequence of VapA (Genbank accession No: D21236). A total of 50 overlapping peptides, each 11 amino acid residues in length (offset by 3 residues at a time) were synthesized beginning from the predicted signal peptide cleavage site between amino acids 31 and 32 up to and including the C terminus.
A total of seventy foal sera, most of these from animals aged between 4 to 12 weeks, were used to screen the peptides. Fifty-one sera were from foals with current R. equi disease (positive sera). Sixteen sera were from foals with no known history of R. equi infection and three sera were from foals that had recovered from R. equi infection 10 months previously (negative sera). Thirty-nine of the positive sera and all negative sera were obtained from studs in South Australia and New South Wales, Australia.
Biotin-SGSG(spacer) labelled peptide units were used as antigen targets. Neutravidin bound to the surface of a micro-titre plate was then used to bind the biotin labelled peptide to the plate. The procedure is as follows:
A solution of neutravidin was diluted 1 in 300 in sterile distilled water to a final concentration of 3.3 μg/ml, and 100 μl per well was added to a micro-titre plate and the plate was left overnight at 37° C. 200 μl 1% casein/1×PBS/0.05% Tween 20 was then added to each well and the plate was left for at least 1 hour at room temperature (or at 4° C. if left longer) before the solution in the plate was flicked out. The plate was then washed five times with 1×PBS/0.05% Tween 20 using an automatic plate washer and the plates were dried by slapping against absorbent paper. […]
The plate was then read using an ELISA plate reader at 450 nm.
Interpretation of data. […] The background OD was the mean of the lowest 50% of all OD values obtained with that particular serum and all OD readings that were twice this value were considered positive. […]

Row | Sequence | number of positive sera recognizing (positive with) the peptide | number of positive sera positive with only this peptide (fifty-one positive sera, fifty-peptide bank)
1 | NLQKDEPNGRA [Seq I.D. No. 47] | fifty-one | two
2 | YLNINFFDSSG [Seq I.D. No. 133] | Ten | 
